According to patent US11179348B2, “Combination comprising pterostilbene for the treatment of cancer” (FUNDACIÓN UNIVERSIDAD CATÓLICA DE VALENCIA SAN VICENTE …, priority 2015, dated 2021):
Marks after values point to notes of the source that are not given here.

Legend:
[1] = test system: SK-OV-3 epithelial ovarian carcinoma; assay: In vivo growth of SK-OV-3 ovarian cancer xenografts; parameters: species or system human; details: SK-OV-3, day 49
[2] = test system: HepG2 cells isolated from tumor-bearing mice; assay: Chemosensitization of cultured HepG2 cells isolated from xenografts; format: cell-based, human; details: 72 h-cultured, PL 0.2 μM, Chemo 0.15 μM DXR, Pter = in vivo pretreatment
Experimental: FIGS. 18-25. Effect of piperlongumine and I-BET762, as GSH depleting and chemosensitizing agents, in in vitro growing human melanoma, pancreatic, breast, lung, liver, prostate, ovarian, and colorectal cancer cells. Cancer cells, isolated from Pter-treated tumor-bearing mice, were cultured as indicated under Methods. Chemotherapy (0.25 μM PAC.PBP in A2058 melanoma and MDA-MB-231 breast carcinoma cells; 0.125 μM PAC.PBP and 25 μM GTB in AsPC-1 pancreatic cancer cells; 1 μM VRB and 15 μM cisPt in A459 lung carcinoma cells; 0.15 μM DXR in HepG2 hepatocellular carcinoma cells; 15 nM DCT in PC-3 prostate carcinoma cells; 0.15 μM PAC.PBP and 25 μM CarboPt in SK-OV-3 ovarian carcinoma cells; 3 μM 5-FU, 1 μM FA and 0.6 μM IRI in HT-29 colorectal carcinoma cells) was added to the cultured flasks 24 h after seeding. […]
Human A2058, MeWo and MelJuso melanoma cells, and mouse AtT-20 pituitary corticotroph tumor cells were from the American Type Culture Collection (ATCC). […] Cell numbers were determined using a Coulter Counter (Coulter Electronic Inc., Miami, Fla.). […] Cellular viability was assessed as previously reported (Mena, S. et al. Clin Cancer Res 13, 2658-2666 (2007)), by measuring trypan blue exclusion and leakage of lactate dehydrogenase activity. […]

In the case of `COc1cc(/C=C/c2ccc(O)cc2)cc(OC)c1` [Pter, trans-3,5-dimethoxy-4′-hydroxystilbene], the Tumor vol. [1] is reported as 214 ± 83* mm^3 and the Viable cells [2] is reported as 1580 ± 318 ×10^6.
